Experiments:
[1] = In vitro release / dissolution of methylprednisolone acetate in 50 wt % aqueous ethanol at 37° C.; assay type: physicochemical; details: unencapsulated
Description: The in vitro release of methylprednisolone acetate from microparticles into a receiving fluid comprising 50 wt % of aqueous ethanol maintained at 37° C. was measured.
Triplicate samples of 20 mg of microparticles were weighed and each sample was placed in an 8-oz bottle containing 150 mL of 50 wt % aqueous ethanol. […] Next, the bottles were sealed with a thin sheet of Teflon and a screw cap to prevent evaporation. The bottles were then placed in an Eberbach shaker bath oscillating at 120 cycles/min and maintained at 37° C. The amount of drug released from the microparticles as a function of time was measured by determining the absorbance of the aqueous ethanol receiving fluid at 247 nm and by using the following equation based on Beer's Law.
methylprednisolone acetate in g/ml.

[2] = Saturation solubility in 50 wt % aqueous ethanol; assay type: physicochemical; details: organic solvent or mixture, 50 wt % of aqueous ethanol

dissolution complete [1]: 30 min
solubility [2]: > 3000 µg/mL
SMILES: CC(=O)OCC(=O)[C@@]1(O)CC[C@H]2[C@@H]3C[C@H](C)C4=CC(=O)C=C[C@]4(C)[C@H]3[C@@H](O)C[C@@]21C [Methylprednisolone acetate, 6α-methylprednisolone acetate]

— patent publication US4530840A, “Injectable, long-acting microparticle formulation for the delivery of anti-inflammatory agents” (priority 1982, dated 1985)
